Data on 3 molecules can be found in US20220378727A1 (priority 2021, published 2022).

The nature of data set [1]: Toxicity study in uninfected mice after intratracheal powder. It counts as in vivo, BALB/c mice. Conditions: 1 mg powder intratracheally. As for the experimental part:
HPBCD only powder was prepared according to the same protocol as A2-TFN but without the addition of tamibarotene and tert-butyl alcohol. One milligram of A2-TFN powder or HPBCD powder, or 50 μL of phosphate buffer saline (PBS) was intratracheally administered in healthy BALB/c mice under anesthesia.

Data set [2] can be described thus: Dissolution study of fine particle dose in simulated lung fluid. It counts as physicochemical. As for the experimental part:
The dissolution profile of A2-TFN powders was investigated using a jacketed beaker which contained 100 mL of simulated lung fluid as dissolution medium. The preparation of simulated lung fluid was according to Marques et al. (SLF3 in the article). The temperature was maintained at 37° C. and the medium was stirred at 75 rpm with a magnetic bar. As fine particle dose (FPD, aerodynamic diameter<5 μm) is considered to be the fraction of powder that can deposit in the deep lung region, the FPD of A2-TFN formulation was collected by a Fast Screening Impactor (FSI, Copley Scientific, UK) coupled with Breezhaler® as described before for dissolution study. Approximately 8.5±0.5 mg of A2-TFN powder was dispersed by FSI to separate an FPD (which contained an estimated amount of 0.5 mg of tamibarotene). The powders were placed on a glass fiber filter paper which was then transferred into the jacketed beaker. At pre-determined time intervals, 1 mL of dissolution medium was withdrawn and filtered through 0.45-μm membrane filter. Equal volume of pre-warmed fresh medium was refilled immediately. The unformulated tamibarotene powder was included as control for comparison. The concentration of tamibarotene was quantified by HPLC as described above. The dissolution study was carried out in triplicate.

The test system of a further data set is SARS-CoV-2. As to the kind of experiment: Plaque reduction assay for antiviral EC50, Vero E6 cells. In kind it is cell-based. Conditions: Severe acute respiratory syndrome coronavirus 2, Vero C1008. The protocol: Plaque reduction assay was performed to plot the 50% antiviral effective dose (EC50). Vero E6 cells were used for SARS-CoV-2 and MDCK cells for influenza A virus. Briefly, cells were seeded at 4×10^5 cells/well in 12-well tissue culture plates on the day before carrying out the assay. After 24 h of incubation, 50 p.f.u. of SARS-CoV-2 or H1N1 virus were added to the cell monolayer with or without the addition of drug compounds and the plates were further incubated for 1 h at 37° C. in 5% CO2 before removal of unbound viral particles by aspiration of the media and washing once with DMEM. Monolayers were then overlaid with media containing 1% low melting agarose (Cambrex Corporation, New Jersey, USA) in DMEM and appropriate concentrations of individual compound, inverted and incubated as above for another 72 h. The wells were then fixed with 10% formaldehyde (BDH, Merck, Darmstadt, Germany) overnight. After removal of the agarose plugs, the monolayers were stained with 0.7% crystal violet (BDH, Merck) and the plaques counted. The percentage of plaque inhibition relative to the control (i.e., without the addition of compound) wells were determined for each drug compound concentration. The EC50 was calculated using Sigma plot (SPSS) in an Excel add-in ED50V10. The plaque reduction assay experiments were performed in triplicate and repeated twice for confirmation.
For orientation: Plaques are areas of infected cells; plaque reduction assays count them against a control.

Data set [3] concerns H1N1 virus. Briefly: Plaque reduction assay for antiviral EC50, MDCK cells. In kind it is cell-based. Conditions: Influenza A virus.
The subject of the next data set is influenza A H1N1 virus. Briefly: In vivo prophylactic protection against H1N1 virus. Details: species or system BALB/c mice. As to conditions: for Lung histopathology (H&E) / Viral PA protein expression in lung (immunofluorescence): 3 d.p.i., data not shown; for Viral RNA load in lung tissues compared with PBS: day 3 post-challenge, 5 mg/kg i.t., one-way ANOVA; for Survival rate compared with PBS group: log-rank test, p<0.01. The protocol: BALB/c mice were used to investigate the in vivo activity of A2-TFN formulation against influenza A H1N1 virus. The mice were evaluated in divided into four groups (nine mice per group). Prior to virus inoculation, i.t. administration was performed under anesthesia in each group: (i) 20 μL of zanamivir solution (5 mg/mL); (ii) 50 μL of unformulated tamibarotene suspension (2 mg/mL); and (iii) 1 mg of A2-TFN powder. The dose of zanamivir or tamibarotene was 5 mg/kg per mouse. In the fourth group of mice, 50 μL of PBS was i.t. administered as negative control. At 2 h post administration, all the mice were i.n. inoculated with 20 μL of virus suspension containing 100 p.f.u. of HIN virus under anesthesia. Four mice in each group were euthanatized randomly on 3 d.p.i. and the lung tissues were harvested for viral load assay by qRT-PCR method. Animal survival, clinical symptoms and body weight were monitored for 14 days or until the humane endpoint (body weight loss more than 20%) was reached. The lung tissue histopathology of infected mice was examined by hematoxylin and eosin (H&E) and immunofluorescence staining. This experiment was conducted in two independent experiments (n=9 in each group).

In data set [4] the test system is H1N1 virus. As to the kind of experiment: In vivo therapeutic effect against H1N1 virus, intranasal treatment. Set-up: species or system BALB/c mice. Conditions: for Viral RNA load in lung compared with PBS group: 3 d.p.i., zanamivir 2 mg/kg i.n., one-way ANOVA; for Viral RNA load in lung compared with PBS group / Survival rate: tamibarotene 0.1 mg/kg; for Survival rate: 14 d.p.i., five i.n. doses from 4 h post 10 p.f.u. H1N1, zanamivir 2 mg/kg, n=7; for Survival rate compared with PBS group: Log-rank test, p<0.01. As for the experimental part: To evaluate the therapeutic effect of tamibarotene formulation against H1N1 virus, BALB/c mice were i.n. inoculated with 20 μL of virus suspension containing 10 p.f.u. of H1N1 virus under anaesthesia. At 4 h post virus challenge, the first therapeutic dose was initiated and the mice were divided into four groups (11 mice per group) to receive 20 μL of each treatment via i.n. administration: (i) zanamivir solution (2 mg/mL); (ii) unformulated tamibarotene suspension (100 μg/mL); (iii) reconstituted A2-TFN solution (100 μg/mL); and (iv) PBS (as negative control). The dose of tamibarotene was 0.1 mg/kg, and the dose of zanamivir was 2 mg/kg. On day 1 and day 2 post-infection, the therapeutic doses were administered twice a day. On 3 d.p.i., four mice in each group were euthanatized randomly and the lung tissues were harvested for viral load assay by qRT-PCR method. Animal survival, clinical symptoms and body weight were monitored for 14 days or until the humane endpoint (body weight loss more than 20%) was reached. This experiment was conducted in two independent experiments (n=11 in each group).

The conditions of data set [5]: plasma, i.p. drug suspension, 5 mg/kg tamibarotene, n=5.
Another data set concerns MERS-CoV. As to conditions: from Yuan, et al., Nature Communications 2019, 10, 120; cited from earlier work.
The next data set is described as follows: in vivo. As to conditions: BALB/c, mouse, ip, 5 mg/kg; for AUC(0-t): AUC0-8 h; for AUC(0-inf): AUC0-∞—D; for MRT last: MRT0-8 h.
Setting [6] is: lung, i.p. drug suspension, 5 mg/kg tamibarotene.
[7] abbreviates: plasma, i.p. drug suspension, 5 mg/kg tamibarotene.

Usually EC50 stands for the concentration giving half of the maximal effect. A word on the Cmax: it is the maximum level reached in the sampled fluid or tissue. By Tmax is commonly meant the time at which the peak concentration occurs. As usually defined, the AUC(0-t) is the area under the concentration-time curve up to a stated or last time point. In general, AUC(0-inf) refers to the area under the concentration-time curve extrapolated to infinity. For orientation: MRT last means a mean duration of stay, worked out from the concentration-time curve. As a reminder, the half-life is the time needed for the level to fall by half in the phase considered. The low end stands for fast loss, the high end for slow loss.

“And” between values parts separate entries of the source, which are not always exact repeats. Equal values may be shown once. Read-outs that look alike come from different tables or passages of the source. Some results are limits rather than exact numbers.

Regarding 2-hydroxypropyl-β-cyclodextrin [HPβCD], the “Body weight of uninfected mice” value in [1] was “recovered more rapidly than A2-TFN group”. Also, the “Toxicity in lung histopathology of uninfected mice” value in data set [1] (data not shown) was “No marked toxicity”.

Take `CC1(C)CCC(C)(C)c2cc(NC(=O)c3ccc(C(=O)O)cc3)ccc21` [tamibarotene]: in [2] (Student's t-test, p<0.01), the “Cumulative dissolved drug after 24 h compared with A2-TFN powder” value was “significantly lower”. Moreover, the Drug dissolved entry in data set [2] (within the first hour, 37° C.) was “approximately 20%”. This molecule had a concentration for a half-maximal effect (EC50) in the data set on SARS-CoV-2 of 5800 ± 1200 nM. This molecule also gave an EC50 in the data set with H1N1 virus [3] of 1680 ± 980 nM. In addition, in the data set with influenza A H1N1 virus, the “Lung histopathology (H&E)” value was “Severe alveolar damage and interstitial inflammatory infiltration”; the “Viral PA protein expression in lung (immunofluorescence)” value is “diminished but remained noticeable in bronchiolar epithelial cells”; the “Viral RNA load in lung tissues compared with PBS” value is listed as “significantly lower”; the “Survival rate compared with PBS group” value is “significantly higher”. Also, in the data set on influenza A H1N1 virus (single i.t. dose 5 mg/kg 2 h before 100 p.f.u. H1N1), the “Time by which all mice reached humane endpoint” value is on record as less than 9 d.p.i. In the data set on H1N1 virus [4], the “Viral RNA load in lung compared with PBS group” value is reported as “significantly lower”, the Survival rate turned out to be 71% and the “Survival rate compared with PBS group” value is “significantly higher”. This molecule also showed a Cmax in data set [5] of 14.2 ± 0.9 µM. In addition, in the data set with MERS-CoV, the EC50 is 320 ± 26 nM. For the same molecule, in “in vivo”, the Tmax was 30 min. In “in vivo” (setting [6]), this molecule displayed an AUC(0-t) of 2400 ± 300 ng·h/mL, an area under the curve AUC(0-inf) of 500 ± 60 ng·h/mL and an MRT last of 36 ± 12 min. In the data set “in vivo” (setting [7]), this molecule registered an AUC(0-t) of 6000 ± 500 ng·h/mL, an AUC(0-inf) of 1500 ± 200 ng·h/mL and an MRT last of 90 ± 12 min. Further, the Cmax in “in vivo” (Cmax, lung, i.p. drug suspension, 5 mg/kg tamibarotene, n=5) was 7.4 µM and 2600 ng/mL. Moreover, the half-life in “in vivo” (T1/2, lung, i.p. drug suspension, 5 mg/kg tamibarotene) is 30 ± 4.8 min. In “in vivo” (T1/2, plasma, i.p. drug suspension, 5 mg/kg tamibarotene), this molecule showed a half-life of 108 ± 24 min.

Take `CC(=O)N[C@H]1[C@H]([C@H](O)[C@H](O)CO)OC(C(=O)O)=C[C@@H]1N=C(N)N` [zanamivir]: in the data set on influenza A H1N1 virus, the “Lung histopathology (H&E)” value is reported as “alleviated”, the “Viral PA protein expression in lung (immunofluorescence)” value is given as “diminished but remained noticeable in bronchiolar epithelial cells”, the “Viral RNA load in lung tissues compared with PBS” value was “no significant difference” and the “Survival rate compared with PBS group” value was “significantly higher”. For the same molecule, in the data set with influenza A H1N1 virus (14 d.p.i., single i.t. dose 5 mg/kg 2 h before 100 p.f.u. H1N1, n=5), the Survival rate amounted to 60%. Besides, in the data set with H1N1 virus [4], the “Viral RNA load in lung compared with PBS group” value is “not been significantly different”, the Survival rate is reported as 86% and the “Survival rate compared with PBS group” value was “significantly higher”.
